This experiment deals with T1, human DPP-IV (Homo sapiens, UniProt P27487).
T1 construct: made in house; host or cells: Pichia pastoris
T1 sequence (P27487 31-766): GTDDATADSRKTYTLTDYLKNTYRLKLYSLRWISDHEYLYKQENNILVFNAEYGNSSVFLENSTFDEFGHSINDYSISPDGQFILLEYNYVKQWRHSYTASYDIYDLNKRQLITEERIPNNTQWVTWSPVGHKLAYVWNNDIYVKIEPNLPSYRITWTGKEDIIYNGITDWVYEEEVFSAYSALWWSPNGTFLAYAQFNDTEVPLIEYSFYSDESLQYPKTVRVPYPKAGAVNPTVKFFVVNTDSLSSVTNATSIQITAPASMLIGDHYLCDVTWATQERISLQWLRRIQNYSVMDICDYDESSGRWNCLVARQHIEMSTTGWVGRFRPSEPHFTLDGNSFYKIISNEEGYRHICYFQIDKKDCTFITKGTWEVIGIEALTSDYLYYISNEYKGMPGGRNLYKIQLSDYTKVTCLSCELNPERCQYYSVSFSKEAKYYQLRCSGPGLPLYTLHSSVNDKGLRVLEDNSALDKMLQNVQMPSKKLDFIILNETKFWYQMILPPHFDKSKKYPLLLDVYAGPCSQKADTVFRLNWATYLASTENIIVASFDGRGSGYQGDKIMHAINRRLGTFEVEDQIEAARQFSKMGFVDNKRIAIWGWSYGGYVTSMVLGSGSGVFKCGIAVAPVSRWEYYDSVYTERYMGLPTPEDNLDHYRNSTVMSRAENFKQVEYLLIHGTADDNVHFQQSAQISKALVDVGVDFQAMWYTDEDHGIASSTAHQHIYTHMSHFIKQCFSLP
The experiment is described as follows: DPP-IV activity assay (fluorometric/colorimetric), IC50 determination. The format is biochemical. The conditions noted are these: natural human DPP-IV from human plasma pool or recombinant human DPP-IV; 37° C., pH 7.8; substrate 50 μM (fluorogenic) or 200 μM (colorimetric). The method, then:
Activity of DPP-IV inhibitors are tested with natural human DPP-IV derived from a human plasma pool or with recombinant human DPP-IV. […] In the calorimetric DPP-IV assay 5 to 10 μl human plasma and in the fluorometric assay 1.0 μl of human plasma in a total assay volume of 100 μl is used as an enzyme source. […] Human DPP-IV is expressed and purified from the culture medium using conventional column chromatography including size exclusion and anion and cation chromatography.
A 20 mM stock solution in 10% DMF/H2O is stored at −20° C. until use.
A 10 mM stock solution in 10% MeOH/H2O is stored at −20° C. until use.
Fluorescence is detected in a Perkin Elmer Luminescence Spectrometer LS 50B at an excitation wavelength of 400 nm and an emission wavelength of 505 nm continuously every 15 seconds for 10 to 30 minutes. Initial rate constants are calculated by best fit linear regression.
Initial rate constants are calculated by best fit linear regression.
DPP-IV activity assays are performed in 96 well plates at 37° C. in a total assay volume of 100 μl. The assay buffer consists of 50 mM Tris/HCl pH 7.8 containing 0.1 mg/ml BSA and 100 mM NaCl. […] Enzyme reactions are started with substrate application followed by immediate mixing.
Regarding `COc1ccc(N2CC[C@@H](N)[C@@H](C(=O)N3CCSC3)C2)cc1OC` (racemic) [Example 40, 3 [(3S,4R) and (3R,4S)-4-Amino-1-(3,4-dimethoxy-phenyl)-piperidine-3-yl]-thiazolidin-3-yl-methanone], the IC50 worked out at 820 nM.
To `NC1CCN(CCc2ccccc2)CC1c1cccc(Cl)c1` (stereo not drawn) [Example 23, 3-(3-Chloro-phenyl)-1-phenethyl-piperidine-4-ylamine] belongs 160 nM; to `N[C@@H]1CCN(CCc2ccccn2)C[C@@H]1C(=O)N1CCSC1` [Example 36], 290 nM.
